One series concerns A549 cells. Description: Cell viability assay (CellTiter 96 / MTT, A490). In kind it is cell-based. As to conditions: A549, apigenin, 24 h; reduced to. The procedure: (§1) FIG. 1. Effect of apigenin and naringenin in cell survival of cancer cells. (A) Structure of the flavonoids apigenin and naringenin. (B) THP-1, U937, A549, and MCF-7 cells were treated with various doses of apigenin or naringenin for 24 h. After the treatment, the percentage of cell proliferation was calculated as the ratio of treated cells to control cells as determined by the MTT method (A490). Data represents means ±SEM (N=9). […] Cells were plated at a density of 2×10^4 cells/well into 96-well plates and treated with flavonoids at indicated concentrations for 24 h. Absorbance at 490 nm (A490) was recorded using an ELISA plate reader (Bio-Tek ELx800, KC Junior, Winooski, Vt.).

The subject of a further series is MCF-7 cells. Description: Cell viability assay (CellTiter 96 / MTT, A490). In kind it is cell-based. As to conditions: MCF-7, apigenin, 24 h; reduced to. The protocol:
as §1

For series [1], the system named is THP-1 cells. Briefly: Cell viability assay (CellTiter 96 / MTT, A490). In kind it is cell-based, human. Conditions: THP-1, 50 to 500 μM apigenin, 24 h; reduced to. The procedure: as §1
The test system of series [2] is U937 cells. Briefly: Cell viability assay (CellTiter 96 / MTT, A490). Conditions: 24 h, reduced to. In kind it is cell-based, human. The protocol: as §1
For series [3], the system named is caspase-9. Briefly: Caspase-9 activity, LEHD-AFC assay, THP-1 lysates. In kind it is cell-based, human. As to conditions: THP-1, 50 μM apigenin. The procedure: (§2) FIG. 3. Apigenin induces caspase activation in monocytic leukemia. THP-1 (top) and U937 (bottom) leukemia cells were treated for various lengths of time with 50 μM apigenin or DMSO (NT). (A and C) Caspase-9 activity was determined by the LEHDAFC assay. (B and D) Caspase-3 activity was determined by the DEVD-AFC assay. Data represents means ±SEM (N=3).
(§3) For measurements of caspase activity, cells were plated at a density of 1.5×10^6 cells/well. After treatment, cells extracts were prepared as previously described (Doseff, A. I., Baker J. H., Bourgeois T. A. and Wewers M. D. (2003) Interleukin-4-induced zpoptosis entails caspase activation and suppression of extracellular signal-regulated kinase phosphorylation. Am. J. Resp. Cell Mol. Biol., 29, 367-374). Protein extracts were incubated with 20 μM DEVD-AFC to determine caspase-3 activity or LEHD-AFC to determine caspase-9 activity (Enzyme Systems Products, Livermore, Calif.) in a cytobuffer as previously described (Doseff, A. I., Baker J. H., Bourgeois T. A. and Wewers M. D. (2003) Interleukin-4-induced zpoptosis entails caspase activation and suppression of extracellular signal-regulated kinase phosphorylation. Am. J. Resp. Cell Mol. Biol., 29, 367-374). Levels of released AFC were measured using Cytofluor 400 fluorimeter (Filters: excitation 400 nm, emission 508 nm; Perspective Co., Framingham, Mass.).

The test system of series [4] is THP-1 cells. Briefly: Reverse-phase HPLC of extracts of treated THP-1 cells (conversion of compound). Conditions: extracts of THP-1 cells, data not shown.
The test system of a further series is p38. Briefly: Western blot of p38 phosphorylation in THP-1 cells. In kind it is cell-based, human. Conditions: THP-1, 50 μM apigenin, after 3 h.
The test system of series [5] is IL-1β. Briefly: IL-1β release from LPS-treated monocytes (sandwich ELISA). In kind it is cell-based. Conditions: LPS stimulated monocytes. The protocol:
Effect of apigenin on IL-1β release. IL-1β released was determined by sandwich ELISA in supernatants of freshly isolated monocytes, or monocytes cultured for 18 h left untreated, treated with 10 ng/ml of LPS or A with different doses of apigenin. B. LPS and different doses of apigenin added at the same time. C. LPS added 1 h prior to the addition of different doses of apigenin. Values represent means ±SEM (N=5, * P<0.05, compared to LPS alone)
(In general: In an ELISA, binding on a coated surface is turned into a signal by an enzyme label.)

For series [6], the system named is caspase-9. Description: Caspase-9 activity, LEHD-AFC assay, U937 lysates. In kind it is cell-based, human. As to conditions: U937, 50 μM apigenin; remained high even after 24 h. The procedure: as §2, §3
In the next series the test system is caspase-3. Briefly: Caspase-3 activity in LPS-stimulated monocytes (DEVD-AFC). In kind it is cell-based. The protocol:
as §3
Apigenin reactivates caspase-3 on LPS-stimulated monocytes. Caspase-3 activity was determined by the DEVD-AFC assay in monocytes freshly isolated (Fresh) or monocytes cultured for 18 h left untreated, treated with 10 ng/m 1 LPS or (A) with different doses of apigenin alone, (B) with LPS and different doses of apigenin or (C) with LPS 1 h prior to the addition of apigenin. […]

The test system of series [7] is U937 cells. Description: Cell survival and apoptosis by calcein AM/PI staining. In kind it is cell-based, human. As to conditions: U937, 50 μM. The protocol: FIG. 2. Apigenin induces cell death in monocytic leukemia cells. THP-1 and U937 leukemia cells were treated for various lengths of time with 50 μM apigenin or left untreated (NT) and stained with calcein AM and PI as described in Material and Methods to evaluate the percentage of cell survival. (A) THP cells after 12 h cells treated with 50 μM apigenin or with DMSO (NT). (B) The percentage of cell survival represented by means ±SEM (N=3).
To investigate apoptosis, cells were plated at a density of 1×10^6 cells/well. After treatment, cells were collected and washed in PBS. Cells were then incubated in RPMI (no phenol red) and 1 μg/ml calcein AM for 30 min and 5×10−2 ng/ml propidium iodide (PI) for 5 min. Cells were washed twice and resuspended in PBS. Cells were viewed using a fluorescent microscope (Olympus, Melville, N.Y.). At least 200 cells were counted. Cells calcein AM positive (green) in the absence of PI (red) were considered alive while cells undergoing apoptosis are green with red. Number of green cells or green with red cells was counted over total number of cells (green alone and green with red) to express cell survival or apoptotic cell percentage respectively.

The next series deals with TNFα. Description: Cytokine expression in LPS-treated monocytes by quantitative PCR. In kind it is cell-based. As to conditions: 10 ng/ml LPS and 10 μM apigenin. The procedure: (§4) Expression of IL-1β, IL-8 and TNFα was analyzed by quantitative PCR using lysates from monocytes left untreated, treated with 10 ng/ml of LPS or with LPS and 10 μM of apigenin. Values represent means ±SEM (N=4).

Another series has as its system IL-8. The description is as above. In kind it is cell-based. As to conditions: 10 ng/ml LPS and 10 μM apigenin. The protocol:
as §4

Series [8] has as its system IL-1β. The description is as above. In kind it is cell-based. Conditions: 10 ng/ml LPS and 10 μM apigenin. The procedure: as §4

Consider one compound from patent US20080200538A1, “Inhibition of Monocyte Survival, Differentiation, or Proliferation” (The Ohio State University Research Foundation, priority 2005, published 2008).

Protocol for p38: A. THP-1 cells were treated with 50 μM apigenin for various lengths of time. Lysates were separated by SDS-PAGE, transferred and analyzed by immunoblots with anti-phospho-p38 (pp 38) and anti-total-p38 antibodies. B. THP-1 cells were treated for 6 hr with 50 μM apigenin alone (lane 2), treated with the apigenin diluent (lane 1), pretreatred with 10 or 25 μM SB203580 for 1 hr prior to the addition of apigenin (lanes 3 and 4) or with the SB203580 inhibitor alone (lanes 5 and 6).
Extracts from 3×10^6 cells were prepared by incubating cells for 30 min on ice in lysis buffer (50 mM Tris, 10 mM EDTA 0.5% NP-40, 10 mM Na-glycerophosphate, 5 mM Na-pyrophosphate, 50 mM NaF, 1 mM orthovanadate, 1 mM DTT, 0.1 mM PMSF, 2 μg/ml of protease inhibitors: chymostatin, pepstatin, antipain, and leupeptin). Cell lysates were centrifuged (14,000×g for 10 min at 4° C.) and the supernatants were stored for at −70° C. for future analysis. Equal amounts of protein were loaded and separated by SDS-PAGE, transferred onto nitrocellulose membranes and probed with antibodies of interest followed by horseradish peroxidase conjugated secondary antibody and visualized by enhanced chemiluminescence (Amersham, Arlington Heights, Ill.). […]

Regarding `O=c1cc(-c2ccc(O)cc2)oc2cc(O)cc(O)c12` [apigenin], the “cell proliferation (ratio of treated to control cells)” value with A549 cells is 80%; in the series on MCF-7 cells it was 80%; in the series on THP-1 cells [1], “approximately 20%”; in the series on U937 cells [2] (U937, 50 μM apigenin) it was 50%; with U937 cells [2] (U937, higher concentrations of apigenin (above 50 μM)), 20%. The “caspase-9 activity, time course” value in the series with caspase-9 [3] is “observed after 6 h of treatment with apigenin and remained high after 9 h of treatment, decreasing after 12 h”; in the series with caspase-9 [6] it was “detected at 9 h”. For the same compound, the “conversion to another chemical entity in treated cells” value in the series on THP-1 cells [4] is listed as “neither one of these two compounds is significantly converted”. Also, the “phosphorylation of p38” value in the series on p38 is “increase”. Besides, the “release of IL-1β” value in the series with IL-1β [5] is given as “inhibits”. Further, the caspase-3 activation entry in the series on caspase-3 was “significantly increases”. In addition, the “decrease in cell survival” value with U937 cells [7] (12 h) was 10%; in the series with U937 cells [7] (24 h) it was 50%. Besides, the “expression of TNFα” value in the series with TNFα is listed as “inhibits the expression”. The “expression of IL-8” value with IL-8 is on record as “inhibits the expression”. Further, the “expression of IL-1β” value in the series with IL-1β [8] is listed as “inhibits the expression”.
